# Patent publication EP0184822A2, “Novel anilide derivatives of substituted arylacetic acids” (SUMITOMO PHARMACEUTICALS COMPANY, LIMITED, priority 1984, dated 1986)
# Test system: ddy-mice
# Assay: Antihypoxic activity (survival time of mice under reduced pressure, 190 mmHg)
# Type: in vivo
# Settings: Mus musculus, ip, injected intraperitoneally usually 30 minutes before the test, desiccator at 190 mmHg, effective = mean survival time above 140 sec and p<0.05 vs control
# Procedure: Six ddy-mice weighing 20 - 27 g were used. Test compound was dissolved in saline or suspended in 0.5 % carboxymethylcellulose and injected intraperitoneally usually 30 minutes before the test at a dosage of 0.1 ml per 10 g of the bodyweight. Two mice were placed in a desiccator, the inside pressure of which was lowered to 190 mmHg within 2 to 3 seconds, and the survival time as well as the time interval between the start of the evacuation and the cessation of respiration was determined. The survival time of the mice which lived longer than 300 seconds was taken as 300 sec.
row,SMILES,minimal effective dose [mg/kg]
1,"CC[C@]12CCCN3CCc4c(n(c5ccccc45)[C@@](O)(C(=O)OC)C1)[C@@H]32 [Vincamine, reference compound]",< 30
2,NS(=O)(=O)c1ccc(NC(=O)C(CCc2ccccc2)c2ccc(Cl)cc2)cc1 (stereo not shown) [Example 38],< 10
3,NC(=O)c1cccc(NC(=O)C(CCCc2ccccc2)c2ccccc2)c1 (stereo not shown) [Example 18],< 10
4,"NC(=O)c1cccc(NC(=O)C(Cc2ccccc2)c2ccccc2)c1 (stereo not drawn) [Example 1, alpha-benzyl-N-(3-carbamoylphenyl)benzeneacetamide]",< 10
5,O=C(Nc1cccc(O)c1)C(Cc1ccccc1)c1ccccc1 (stereo not shown) [Example 7],< 10
6,O=C(Nc1cccc(O)c1)C(CCCc1ccccc1)c1ccccc1 (stereo not shown) [Example 23],< 10
7,"CCC(C(=O)Nc1ccc(O)cc1)c1ccccc1 (stereo not shown) [Known product (see page 2), reference compound]",> 30
8,"COc1ccc(Cc2nccc3cc(OC)c(OC)cc23)cc1OC [Papaverine, reference compound]",< 30
9,"CN(C)CCCOC1(Cc2ccccc2)CCCCCC1 [Bencyclane, reference compound]",< 30
10,Cc1ccc(C(CCc2ccccc2)C(=O)Nc2ccc(S(N)(=O)=O)cc2)cc1 (stereo not shown) [Example 40],< 10
